pEC50: −log10 of the molar value. Where “and” joins values, the source holds several entries; their conditions need not be identical. Equal entries are not always repeated.
Target: T1, mAC3 (Homo sapiens, UniProt O60266)
T1 construct: Human mAC genes were from GenScript and fitted with a C-terminal FLAG-tag; FLAG (C); made in house; host or cells: HEK293, permanently transfected; membrane preparation
Assay: AC assay, Gsα-stimulated mAC3 in membranes from transfected HEK293 cells
Format: biochemical
Parameters: ATP/V (mAC3 + 20µM Oleic acid): unit not given here
Conditions: for ATP/V (mAC3 + 20µM Oleic acid): Hanes-Woolf plot; for mAC3 activity + 20µM Oleic acid: Michaelis-Menten; for mAC3 activity [%] (100% = 300nM Gsα stimulation): individual experiments; for mAC3 activity; stimulated by 300nM Gsα + 20µM Oleic acid: 37°C
Summary of the method: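 cAMP formation was quantified by HTRF against a cAMP standard curve, with EC50 or IC50 derived by curve fitting. Reactions contained 1 mM ATP, 2 mM MgCl2, 3 mM creatine phosphate, 60 μg/ml creatine kinase and 50 mM MOPS pH 7.5, using membranes of stably transfected HEK293 cells carrying FLAG-tagged human AC.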

T1 sequence (O60266 whole entry): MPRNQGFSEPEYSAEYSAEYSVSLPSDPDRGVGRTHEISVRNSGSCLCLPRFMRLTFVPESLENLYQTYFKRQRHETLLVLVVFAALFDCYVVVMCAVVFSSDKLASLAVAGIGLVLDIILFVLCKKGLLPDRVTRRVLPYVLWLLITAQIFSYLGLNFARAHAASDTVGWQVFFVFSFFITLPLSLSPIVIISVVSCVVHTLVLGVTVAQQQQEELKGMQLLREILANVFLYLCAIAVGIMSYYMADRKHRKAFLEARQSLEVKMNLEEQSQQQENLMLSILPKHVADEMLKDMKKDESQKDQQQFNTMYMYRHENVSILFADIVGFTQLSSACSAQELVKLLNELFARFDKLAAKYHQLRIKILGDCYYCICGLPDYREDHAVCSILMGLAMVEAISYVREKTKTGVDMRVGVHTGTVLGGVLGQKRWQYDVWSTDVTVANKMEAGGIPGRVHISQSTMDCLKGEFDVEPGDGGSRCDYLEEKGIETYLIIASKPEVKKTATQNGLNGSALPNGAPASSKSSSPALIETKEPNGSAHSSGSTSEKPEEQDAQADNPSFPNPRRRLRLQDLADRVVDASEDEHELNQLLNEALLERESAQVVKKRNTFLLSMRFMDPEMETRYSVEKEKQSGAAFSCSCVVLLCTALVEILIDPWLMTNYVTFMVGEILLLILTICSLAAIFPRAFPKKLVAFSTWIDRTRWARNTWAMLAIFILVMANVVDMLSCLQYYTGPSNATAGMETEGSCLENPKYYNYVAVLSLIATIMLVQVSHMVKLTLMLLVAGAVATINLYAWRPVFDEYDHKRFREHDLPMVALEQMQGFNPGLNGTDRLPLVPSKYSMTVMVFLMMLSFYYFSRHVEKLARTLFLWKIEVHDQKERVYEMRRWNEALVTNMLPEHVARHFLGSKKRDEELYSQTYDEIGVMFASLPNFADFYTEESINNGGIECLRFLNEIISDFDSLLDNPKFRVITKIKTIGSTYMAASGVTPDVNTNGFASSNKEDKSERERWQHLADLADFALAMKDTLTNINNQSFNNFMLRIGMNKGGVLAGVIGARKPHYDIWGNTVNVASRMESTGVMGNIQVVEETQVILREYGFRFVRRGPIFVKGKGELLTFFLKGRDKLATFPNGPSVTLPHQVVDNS
T1 sequence (P63092 whole entry Q227L partner): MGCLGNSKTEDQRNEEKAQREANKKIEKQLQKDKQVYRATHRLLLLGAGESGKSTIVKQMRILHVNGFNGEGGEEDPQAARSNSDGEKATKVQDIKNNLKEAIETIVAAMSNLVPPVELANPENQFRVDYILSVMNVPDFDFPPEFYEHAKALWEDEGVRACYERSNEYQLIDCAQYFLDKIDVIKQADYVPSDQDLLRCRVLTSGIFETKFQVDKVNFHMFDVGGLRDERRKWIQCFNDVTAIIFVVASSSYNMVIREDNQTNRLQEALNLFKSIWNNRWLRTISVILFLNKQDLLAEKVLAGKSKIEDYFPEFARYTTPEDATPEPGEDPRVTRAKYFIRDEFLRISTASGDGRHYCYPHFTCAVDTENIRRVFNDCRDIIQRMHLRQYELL

CCCCCCCC/C=C\CCCCCCCC(=O)O [Oleic acid, Oleic ((9Z)-octadecenoic) acid]
enhancement of cAMP formation, mAC3 (20 µM oleic, over the Gsα concentration range tested): about 3.4 fold
Effect of lipid on 300 nM Gsα-stimulated mAC3 (20 µM, in words): threefold
activity, mAC3 + 20µM Oleic acid (Gsα 100 nM): 0.209 cAMP nmol/mg/min and 0.110 cAMP nmol/mg/min and 0.112 cAMP nmol/mg/min
activity, mAC3 + 20µM Oleic acid (Gsα 300 nM): 0.432 cAMP nmol/mg/min and 0.605 cAMP nmol/mg/min and 0.596 cAMP nmol/mg/min
activity, mAC3 + 20µM Oleic acid (Gsα 450 nM): 0.779 cAMP nmol/mg/min and 1.182 cAMP nmol/mg/min and 0.727 cAMP nmol/mg/min
activity, mAC3 + 20µM Oleic acid (Gsα 600 nM): 0.825 cAMP nmol/mg/min and 1.078 cAMP nmol/mg/min and 1.302 cAMP nmol/mg/min
activity, mAC3 + 20µM Oleic acid (Gsα 800 nM): 1.075 cAMP nmol/mg/min and 1.164 cAMP nmol/mg/min and 1.303 cAMP nmol/mg/min
activity, mAC3 + 20µM Oleic acid (Gsα 1000 nM): 1.029 cAMP nmol/mg/min and 1.444 cAMP nmol/mg/min and 1.731 cAMP nmol/mg/min
ATP/V (mAC3 + 20µM Oleic acid) (ATP 50 µM): 208.8
ATP/V (mAC3 + 20µM Oleic acid) (ATP 75 µM): 204.9
ATP/V (mAC3 + 20µM Oleic acid) (ATP 250 µM): 392.9
ATP/V (mAC3 + 20µM Oleic acid) (ATP 500 µM): 636.9
ATP/V (mAC3 + 20µM Oleic acid) (ATP 750 µM): 814.6
ATP/V (mAC3 + 20µM Oleic acid) (ATP 1000 µM): 941.6
mAC3 activity + 20µM Oleic acid (ATP 50 µM): 0.232 nmol cAMP/mg/min and 0.247 nmol cAMP/mg/min
mAC3 activity + 20µM Oleic acid (ATP 75 µM): 0.434 nmol cAMP/mg/min and 0.298 nmol cAMP/mg/min
mAC3 activity + 20µM Oleic acid (ATP 250 µM): 0.713 nmol cAMP/mg/min and 0.609 nmol cAMP/mg/min and 0.587 nmol cAMP/mg/min
mAC3 activity + 20µM Oleic acid (ATP 500 µM): 0.786 nmol cAMP/mg/min and 0.782 nmol cAMP/mg/min and 0.787 nmol cAMP/mg/min
mAC3 activity + 20µM Oleic acid (ATP 750 µM): 0.817 nmol cAMP/mg/min and 0.753 nmol cAMP/mg/min and 1.192 nmol cAMP/mg/min
mAC3 activity + 20µM Oleic acid (ATP 1000 µM): 0.944 nmol cAMP/mg/min and 1.156 nmol cAMP/mg/min and 1.086 nmol cAMP/mg/min
pEC50 (enhancement of 300 nM Gsα-stimulated activity): 4.98
mAC3 activity [%] (100% = 300nM Gsα stimulation) (fatty acid 0.5 µM): 100%
mAC3 activity [%] (100% = 300nM Gsα stimulation) (fatty acid 1 µM): 112% and 105% and 91% and 64% and 97% and 107% and 78% and 95% and 111% and 139% and 103% and 106% and 87%
mAC3 activity [%] (100% = 300nM Gsα stimulation) (fatty acid 3 µM): 98% and 158% and 97% and 183% and 141% and 160% and 142% and 105% and 145% and 150%
mAC3 activity [%] (100% = 300nM Gsα stimulation) (fatty acid 6 µM): 117% and 105% and 165% and 187% and 143% and 169% (2×) and 166% and 97%
mAC3 activity [%] (100% = 300nM Gsα stimulation) (fatty acid 10 µM): 271% and 106% and 156% and 151% and 142% and 280% and 178% and 252% and 181% and 191% and 139% and 175% and 284% and 260% and 266% and 166%
mAC3 activity [%] (100% = 300nM Gsα stimulation) (fatty acid 20 µM): 341% and 348% and 429% and 323% and 430% and 264% and 322% and 395% and 181% and 452% and 464% and 265% (2×)
mAC3 activity [%] (100% = 300nM Gsα stimulation) (fatty acid 20 µM, listed as Oleic): 298% and 532% and 253% and 428% and 297%
mAC3 activity; stimulated by 300nM Gsα + 20µM Oleic acid (time 3 min): 2.601 cAMP nmol/mg and 2.019 cAMP nmol/mg
mAC3 activity; stimulated by 300nM Gsα + 20µM Oleic acid (time 6 min): 2.734 cAMP nmol/mg and 2.75 cAMP nmol/mg
mAC3 activity; stimulated by 300nM Gsα + 20µM Oleic acid (time 10 min): 3.46 cAMP nmol/mg
mAC3 activity; stimulated by 300nM Gsα + 20µM Oleic acid (time 15 min): 4.543 cAMP nmol/mg and 5.759 cAMP nmol/mg
mAC3 activity; stimulated by 300nM Gsα + 20µM Oleic acid (time 20 min): 6.22 cAMP nmol/mg and 8.564 cAMP nmol/mg
mAC3 activity; stimulated by 300nM Gsα + 20µM Oleic acid (time 25 min): 9.573 cAMP nmol/mg and 11.033 cAMP nmol/mg
Vmax, mAC3 (with 20 µM oleic acid): 1.23 nmol cAMP•mg^−1•min^−1

Reference: article PMC11606603, “The membrane domains of mammalian adenylyl cyclases are lipid receptors” (eLife, 2024)
